Patent publication US20250115597A1, “TYK2 INHIBITORS AND COMPOSITIONS AND METHODS THEREOF” (LYNK PHARMACEUTICALS CO. LTD., priority 2021, published 2025)

target: T1, Ba/F3-FL-TYK2-P760L cells (Homo sapiens, UniProt P29597, P760L, cells depend on it); assay: Anti-proliferative assay, Ba/F3-FL-TYK2-P760L cells (Cell-Titer Glo); type: cell-based; settings: 72 h, read-out: BaF3-FL-T2P760L IC50
T1 construct: BaF3-FL-T2P760L (nM)
Description: Anti-Proliferative Assay Dimerization domain of Tel protein fused with JAK kinase domain was permanently transduced into Ba/F3 cells, whose proliferation is dependent on JAK activity in the absence of IL-3 induction. These engineered Ba/F3 cells (Ba/F3-FL-TYK2-[…], Ba/F3-TEL-TYK2 and Ba/F3-TEL-JAK2) were used to monitor JAK inhibitory activities of the compounds in the cellular. […] Cells were seeded at 2000/well of white flat bottom 96-well plates. The well containing medium only was used as background control. After 24 h growth, cells were treated with compounds. The test compounds were dissolved in DMSO to a stock concentration of 20 mM. 3-fold serially diluted compounds for 9 concentrations with top concentration of 20 μM was added into the each well. […] The cells continued to grow at 37° C. in 5% CO2 for 72 h after compound treatment. The viability was measured by cellular ATP determination using the Cell-Titer Glo luciferase reagent (Promega). The Luminescence value was recorded by a multi-label reader Envision (PerkinElmer).

T1 sequence (P29597 whole entry P760L): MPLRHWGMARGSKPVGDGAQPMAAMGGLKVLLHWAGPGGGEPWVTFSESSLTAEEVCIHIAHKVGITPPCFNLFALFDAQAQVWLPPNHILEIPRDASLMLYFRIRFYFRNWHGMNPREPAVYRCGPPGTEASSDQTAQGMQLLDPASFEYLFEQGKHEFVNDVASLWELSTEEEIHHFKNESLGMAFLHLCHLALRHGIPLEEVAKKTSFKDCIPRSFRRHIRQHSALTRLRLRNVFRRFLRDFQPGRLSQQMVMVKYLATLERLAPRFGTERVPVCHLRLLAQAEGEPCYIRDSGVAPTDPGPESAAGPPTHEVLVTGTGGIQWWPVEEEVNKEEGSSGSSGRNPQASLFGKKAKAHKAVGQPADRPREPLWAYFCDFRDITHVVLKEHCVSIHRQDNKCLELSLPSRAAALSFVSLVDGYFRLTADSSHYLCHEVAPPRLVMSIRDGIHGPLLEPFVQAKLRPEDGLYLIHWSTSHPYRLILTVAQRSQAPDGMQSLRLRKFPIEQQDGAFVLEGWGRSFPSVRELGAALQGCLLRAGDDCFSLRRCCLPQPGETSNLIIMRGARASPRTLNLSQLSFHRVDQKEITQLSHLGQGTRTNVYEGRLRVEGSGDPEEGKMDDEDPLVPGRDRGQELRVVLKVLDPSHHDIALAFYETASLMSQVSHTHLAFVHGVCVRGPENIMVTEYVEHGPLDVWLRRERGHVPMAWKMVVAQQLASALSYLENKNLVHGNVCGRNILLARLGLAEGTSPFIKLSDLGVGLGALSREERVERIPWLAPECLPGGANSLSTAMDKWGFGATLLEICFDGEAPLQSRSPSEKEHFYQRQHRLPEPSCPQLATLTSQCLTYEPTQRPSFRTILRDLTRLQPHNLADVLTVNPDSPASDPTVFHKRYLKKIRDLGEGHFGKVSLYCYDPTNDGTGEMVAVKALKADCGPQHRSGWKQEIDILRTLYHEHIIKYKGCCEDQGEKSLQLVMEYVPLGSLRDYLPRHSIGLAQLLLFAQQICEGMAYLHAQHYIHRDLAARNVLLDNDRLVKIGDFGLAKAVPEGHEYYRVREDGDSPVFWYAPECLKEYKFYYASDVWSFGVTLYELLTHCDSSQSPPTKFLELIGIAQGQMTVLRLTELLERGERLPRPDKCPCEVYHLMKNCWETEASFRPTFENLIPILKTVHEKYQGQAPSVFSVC

First: [2H]C([2H])([2H])NC(=O)c1cnc(NC(=O)C2(C(F)(F)F)CC2)cc1Nc1ccc2cnn(CC)c2c1OC [Example 238, 4-((1-Ethyl-7-methoxy-1H-indazol-6-yl)amino)-N-(methyl-d3)-6-(1-(trifluoromethyl)cyclopropane-1-carboxamido)nicotinamide]
Second: [2H]C([2H])([2H])NC(=O)c1cnc(NC(=O)C2CC2)cc1Nc1ccc2cnn(C3CC3)c2c1OC([2H])([2H])[2H] [Example 145, 6-(Cyclopropanecarboxamido)-4-((1-cyclopropyl-7-(methoxy-d3)-1H-indazol-6-yl)amino)-N-(methyl-d3)nicotinamide]
The GI50 of the first is higher: greater than 5000 nM for the first, 83.6 nM for the second.

Going from `[2H]C([2H])([2H])NC(=O)c1cnc(NC(=O)C2CC2)cc1Nc1csc2cnn(C(C)CC)c(=O)c12` (centres unmarked) [Example 180, 4-((5-(Sec-butyl)-4-oxo-4,5-dihydrothieno[2,3-d]pyridazin-3-yl)amino)-6-(cyclopropanecarboxamido)-N-(methyl-d3)nicotinamide] to `[2H]C([2H])([2H])NC(=O)c1cnc(NC(=O)C2CC2)cc1Nc1csc2cnn(CCOC)c(=O)c12` [Example 179, 6-(Cyclopropanecarboxamido)-4-((5-(2-methoxyethyl)-4-oxo-4,5-dihydrothieno[2,3-d]pyridazin-3-yl)amino)-N-(methyl-d3)nicotinamide], the GI50 rises from 1350 nM to greater than 5000 nM.

First: [2H]C([2H])([2H])NC(=O)c1cnc(Nc2cnn(C3CCOCC3)c2)nc1Nc1cccc(-c2ncn(C)n2)c1OC [Example 30, 4-((2-Methoxy-3-(1-methyl-1H-1,2,4-triazol-3-yl)phenyl)amino)-N-(methyl-d3)-2-((1-(tetrahydro-2H-pyran-4-yl)-1H-pyrazol-4-yl)amino)pyrimidine-5-carboxamide]
Second: [2H]C([2H])([2H])NC(=O)c1cnc(Nc2cnn(C3CCOC3)c2)nc1Nc1cccc(-c2ncn(C)n2)c1OC (centres unmarked) [Example 31, 4-((2-Methoxy-3-(1-methyl-1H-1,2,4-triazol-3-yl)phenyl)amino)-N-(methyl-d3)-2-((1-(tetrahydrofuran-3-yl)-1H-pyrazol-4-yl)amino)pyrimidine-5-carboxamide]
The GI50 of the first is 1.5-fold lower: 199 nM for the first, 303 nM for the second.

Going from `[2H]C([2H])([2H])NC(=O)c1cnc(NC(=O)C2CC2)cc1Nc1csc2c(C)nn(CC)c(=O)c12` [Example 187, 6-(Cyclopropanecarboxamido)-4-((5-ethyl-7-methyl-4-oxo-4,5-dihydrothieno[2,3-d]pyridazin-3-yl)amino)-N-(methyl-d3)nicotinamide] to `[2H]C([2H])([2H])NC(=O)c1cnc(NC(=O)C2CC2)cc1Nc1cn(C)c2ccn(CC(=O)OCC)c(=O)c12` [Example 117, Ethyl 2-(3-((2-(cyclopropanecarboxamido)-5-((methyl-d3)carbamoyl)pyridin-4-yl)amino)-1-methyl-4-oxo-1,4-dihydro-5H-pyrrolo[3,2-c]pyridin-5-yl)acetate], the GI50 falls from 442 nM to 249 nM (1.8-fold).

First: [2H]C([2H])([2H])NC(=O)c1cnc(Nc2cnn(C)c2)nc1Nc1ccc2cnn(CC)c2c1OC([2H])([2H])[2H] [Example 136, 4-((1-Ethyl-7-(methoxy-d3)-1H-indazol-6-yl)amino)-N-(methyl-d3)-2-((1-methyl-1H-pyrazol-4-yl)amino)pyrimidine-5-carboxamide]
Second: [2H]C([2H])([2H])NC(=O)c1cnc(Nc2ccn(C)n2)nc1Nc1cccc(-c2ncn(C)n2)c1OC [Example 60, 4-((2-Methoxy-3-(1-methyl-1H-1,2,4-triazol-3-yl)phenyl)amino)-N-(methyl-d3)-2-((1-methyl-1H-pyrazol-3-yl)amino)pyrimidine-5-carboxamide]
The GI50 of the first is 4.3-fold lower: 326 nM for the first, 1410 nM for the second.

Compared with `[2H]C([2H])([2H])NC(=O)c1cnc(NC(=O)C2CC2)cc1Nc1cn(C)c2ccn(CCOC)c(=O)c12` [Example 112, 6-(Cyclopropanecarboxamido)-4-((5-(2-methoxyethyl)-1-methyl-4-oxo-4,5-dihydro-1H-pyrrolo[3,2-c]pyridin-3-yl)amino)-N-(methyl-d3)nicotinamide], `[2H]C([2H])([2H])NC(=O)c1cnc(NC(=O)C2CC2)cc1Nc1cn(C)c2ccn(CC=C)c(=O)c12` [Example 109, 4-((5-Allyl-1-methyl-4-oxo-4,5-dihydro-1H-pyrrolo[3,2-c]pyridin-3-yl)amino)-6-(cyclopropanecarboxamido)-N-(methyl-d3)nicotinamide] is 3.2-fold lower in GI50: 477 nM for the first, 147 nM for the second.

First: [2H]C([2H])([2H])NC(=O)c1cnc(NC(=O)C2CC2)cc1Nc1cn(C)c2ccn(C3CCC3)c(=O)c12 [Example 111, 4-((5-Cyclobutyl-1-methyl-4-oxo-4,5-dihydro-1H-pyrrolo[3,2-c]pyridin-3-yl)amino)-6-(cyclopropanecarboxamido)-N-(methyl-d3)nicotinamide]
Second: CNC(=O)c1cnc(NC(=O)C2CC2)cc1Nc1cn(C)c2ccn(C(C)C)c(=O)c12 [Example 50, 6-(Cyclopropanecarboxamido)-4-((5-isopropyl-1-methyl-4-oxo-4,5-dihydro-1H-pyrrolo[3,2-c]pyridin-3-yl)amino)-N-methylnicotinamide]
The GI50 of the first is 2.4-fold lower: 154 nM for the first, 371 nM for the second.

Going from `[2H]C([2H])([2H])NC(=O)c1nnc2cc1Nc1cc(cc(-c3ncn(C)n3)c1OC)CNCc1nc(ccc1F)N2` [Example 87, 18-Fluoro-10-methoxy-N-(methyl-d3)-11-(1-methyl-1H-1,2,4-triazol-3-yl)-2,4,5,8,15,21-hexaazatetracyclo[15.3.1.1^{3,7}.1^{9,13}]tricosa-1(20),3,5,7(23),9(22),10,12,17(21),18-nonaene-6-carboxamide] to `[2H]C([2H])([2H])NC(=O)c1nnc2cc1Nc1cc(cc(-c3ncc(F)cn3)c1OC)COCc1nc(ccc1F)N2` [Example 80, 18-Fluoro-11-(5-fluoropyrimidin-2-yl)-10-methoxy-N-(methyl-d3)-15-oxa-2,4,5,8,21-pentaazatetracyclo[15.3.1.1^{3,7}.1^{9,13}]tricosa-1(20),3,5,7(23),9(22),10,12,17(21),18-nonaene-6-carboxamide], the GI50 falls from 584 nM to 213 nM (2.7-fold).

First: [2H]C([2H])([2H])NC(=O)c1cnc(Nc2ccc(F)cn2)cc1Nc1cn(C)c2c(Cl)cn(C([2H])([2H])[2H])c(=O)c12 [Example 170, 4-((7-Chloro-1-methyl-5-(methyl-d3)-4-oxo-4,5-dihydro-1H-pyrrolo[3,2-c]pyridin-3-yl)amino)-6-((5-fluoropyridin-2-yl)amino)-N-(methyl-d3)nicotinamide]
Second: CNC(=O)c1cnc(Nc2ccc(F)cn2)cc1Nc1cccc(C(F)(F)F)c1OC [Example 55, 6-((5-Fluoropyridin-2-yl)amino)-4-((2-methoxy-3-(trifluoromethyl)phenyl)amino)-N-methylnicotinamide]
The GI50 of the first is 23-fold lower: 27.6 nM for the first, 627 nM for the second.

First: [2H]C([2H])([2H])NC(=O)c1cnc(Nc2ccc(F)cc2)nc1Nc1csc2ccn(C)c(=O)c12 [Example 29, 2-((4-Fluorophenyl)amino)-N-(methyl-d3)-4-((5-methyl-4-oxo-4,5-dihydrothieno [3,2-c]pyridin-3-yl)amino) pyrimidine-5-carboxamide]
Second: CNC(=O)c1cnc(Nc2ccc(F)cc2)nc1Nc1coc2ccn(C)c(=O)c12 [Example 38, 2-((4-Fluorophenyl)amino)-N-methyl-4-((5-methyl-4-oxo-4,5-dihydrofuro[3,2-c]pyridin-3-yl)amino)pyrimidine-5-carboxamide]
The GI50 of the first is higher: greater than 20000 nM for the first, 831 nM for the second.

Going from `[2H]C([2H])([2H])N1Cc2nc(NC(=O)C3CC3)cc(Nc3ccc4cnn(CC)c4c3OC)c2C1=O` [Example 210, N-(4-((1-ethyl-7-methoxy-1H-indazol-6-yl)amino)-6-(methyl-d3)-5-oxo-6,7-dihydro-5H-pyrrolo[3,4-b]pyridin-2-yl)cyclopropanecarboxamide] to `[2H]C([2H])([2H])NC(=O)c1cnc(NC(=O)C2CC2)cc1Nc1ccn2ncc(C([2H])([2H])[2H])c2c1OC` [Example 220, 6-(Cyclopropanecarboxamido)-4-((4-methoxy-3-(methyl-d3)pyrazolo[1,5-a]pyridin-5-yl)amino)-N-(methyl-d3)nicotinamide], the GI50 falls from greater than 5000 nM to 541 nM.

Going from `CCN1C(=O)C(F)(F)c2ccc(Nc3cc(NC(=O)C4CC4)ncc3C(=O)NC)c(OC)c21` [Example 204, 6-(Cyclopropanecarboxamido)-4-((1-ethyl-3,3-difluoro-7-methoxy-2-oxoindolin-6-yl)amino)-N-methylnicotinamide] to `COC(=O)c1cnc(NC(=O)C2CC2)cc1Nc1cnc2ccn(CC(F)(F)F)c(=O)n12` [Example 48, Methyl 6-(cyclopropanecarboxamido)-4-((5-oxo-6-(2,2,2-trifluoroethyl)-5,6-dihydroimidazo[1,2-c]pyrimidin-3-yl)amino)nicotinate], the GI50 rises from 327 nM to 3810 nM (12-fold).

`[2H]C([2H])([2H])NC(=O)c1nnc2cc1Nc1cc(cc(-c3ccn(C4CC4)n3)c1OC)COCc1cc(F)cc(n1)N2` [Example 94, 11-(1-Cyclopropyl-1H-pyrazol-3-yl)-19-fluoro-10-methoxy-N-(methyl-d3)-15-oxa-2,4,5,8,21-pentaazatetracyclo[15.3.1.1^{3,7}.1^{9,13}]tricosa-1(21),3,5,7(23),9(22),10,12,17,19-nonaene-6-carboxamide] and `[2H]C([2H])([2H])NC(=O)c1cnc(NC(=O)C2CC2)cc1Nc1cnn2c1C(=O)N(CC(F)(F)F)CC2` [Example 46, 6-(Cyclopropanecarboxamido)-N-(methyl-d3)-4-((4-oxo-5-(2,2,2-trifluoroethyl)-4,5,6,7-tetrahydropyrazolo[1,5-a]pyrazin-3-yl)amino) nicotinamide] are within 1.5-fold of each other in GI50: 293 nM for the first, 372 nM for the second.
